From patent US20230398130A1, “METHODS AND COMPOSITIONS FOR DIFFERENTIATING STEM CELLS” (Massachusetts Institute of Technology, priority 2020, published 2023)

What was measured:
[1] = system: ISC-enriched organoids; experiment: Primary screen, 384-well 2.5-D organoid differentiation (ENR+CD, 6 days): basal lysozyme secretion (LYZ.NS); format: cell-based, murine; conditions: for Dose.FC.LYZ.NS: FC vs plate median; for SSMD.LYZ.NS: strictly standardized mean difference
Description: (§1) High-throughput screening.

[2] = system: ISC-enriched organoids; experiment: Primary screen, 384-well 2.5-D organoid differentiation (ENR+CD, 6 days): carbachol-induced lysozyme secretion (LYZ.S); format: cell-based, murine; conditions: for Dose.FC.LYZ.S / Z.LYZ.S / SSMD.LYZ.S: primary screen; for Dose.FC.LYZ.S: FC vs plate median; for Z.LYZ.S: standard z score; for SSMD.LYZ.S: strictly standardized mean difference
Description: as §1

[3] = system: ISC-enriched organoids; experiment: Primary screen, 384-well 2.5-D organoid differentiation (ENR+CD, 6 days, Target Selective Inhibitor Library, vs whole-plate median): ATP (CellTiter-Glo 3D, CTG); conditions: for Dose.FC.CTG: FC vs plate median; for SSMD.CTG: strictly standardized mean difference
[4] = Dose 0.08 uM, primary screen, standard z score
[5] = Dose 0.40 uM, primary screen, standard z score
[6] = Dose 2.00 uM, primary screen, standard z score
[7] = Dose 10.00 uM, primary screen, standard z score
[8] = primary screen, 1st of the 4 dose lines of the treatment (dose not given)
[9] = primary screen, 2nd of the 4 dose lines of the treatment (dose not given)
[10] = primary screen, 3rd of the 4 dose lines of the treatment (dose not given)
[11] = primary screen, 4th of the 4 dose lines of the treatment (dose not given)
[12] = 1st of the 4 dose lines of the treatment (dose not given)
[13] = 2nd of the 4 dose lines of the treatment (dose not given)
[14] = 3rd of the 4 dose lines of the treatment (dose not given)
[15] = 4th of the 4 dose lines of the treatment (dose not given)
[16] = Dose 0.08 uM, standard z score of FC
[17] = Dose 0.40 uM, standard z score of FC
[18] = Dose 2.00 uM, standard z score of FC
[19] = Dose 10.00 uM, standard z score of FC
[20] = dose 0.08 uM (1st of 4 lines per treatment; dose not printed in this part)
[21] = dose 0.40 uM (2nd of 4 lines per treatment; dose not printed in this part)
[22] = dose 2.00 uM (3rd of 4 lines per treatment; dose not printed in this part)
[23] = dose 10.00 uM (4th of 4 lines per treatment; dose not printed in this part)
[24] = primary screen, dose 0.08 uM, ENR+CD 6 days
[25] = primary screen, dose 0.08 uM, standard z score of FC
[26] = primary screen, dose 0.40 uM, ENR+CD 6 days
[27] = primary screen, dose 0.40 uM, standard z score of FC
[28] = primary screen, dose 2.00 uM, ENR+CD 6 days
[29] = primary screen, dose 2.00 uM, standard z score of FC
[30] = primary screen, dose 10.00 uM, ENR+CD 6 days
[31] = primary screen, dose 10.00 uM, standard z score of FC

KX2-391
Dose.FC.LYZ.NS ([1]; Dose 0.08 uM, primary screen): −0.283 log 2 fold change | Z.LYZ.NS [1, 4]: −2.468 | Dose.FC.LYZ.NS ([1]; Dose 0.40 uM, primary screen): −0.292 log 2 fold change | Z.LYZ.NS [1, 5]: −2.546 | Dose.FC.LYZ.NS ([1]; Dose 2.00 uM, primary screen): −0.251 log 2 fold change | Z.LYZ.NS [1, 6]: −2.188 | Dose.FC.LYZ.NS ([1]; Dose 10.00 uM, primary screen): −0.286 log 2 fold change | Z.LYZ.NS [1, 7]: −2.494 | SSMD.LYZ.NS [1, 8]: −2.177 | SSMD.LYZ.NS [1, 9]: −1.855 | SSMD.LYZ.NS [1, 10]: −1.701 | SSMD.LYZ.NS [1, 11]: −2.061 | Dose.FC.LYZ.S ([2]; Dose 0.08 uM): −0.396 log 2 fold change | Dose.FC.LYZ.S ([2]; Dose 0.40 uM): −0.380 log 2 fold change | Dose.FC.LYZ.S ([2]; Dose 2.00 uM): −0.424 log 2 fold change | Dose.FC.LYZ.S ([2]; Dose 10.00 uM): −0.419 log 2 fold change | Z.LYZ.S [2, 12]: −2.561 | Z.LYZ.S [2, 13]: −2.455 | Z.LYZ.S [2, 14]: −2.741 | Z.LYZ.S [2, 15]: −2.709 | SSMD.LYZ.S [2, 12]: −2.252 | SSMD.LYZ.S [2, 13]: −1.641 | SSMD.LYZ.S [2, 14]: −1.898 | SSMD.LYZ.S [2, 15]: −2.140 | Dose.FC.CTG ([3]; Dose 0.08 uM, primary screen): −0.752 log 2 fold change | Z.CTG [3, 4]: −1.796 | Dose.FC.CTG ([3]; Dose 0.40 uM, primary screen): −1.251 log 2 fold change | Z.CTG [3, 5]: −2.989 | Dose.FC.CTG ([3]; Dose 2.00 uM, primary screen): −1.983 log 2 fold change | Z.CTG [3, 6]: −4.737 | Dose.FC.CTG ([3]; Dose 10.00 uM, primary screen): −1.414 log 2 fold change | Z.CTG [3, 7]: −3.377 | SSMD.CTG [3, 8]: −2.473 | SSMD.CTG [3, 9]: −2.845 | SSMD.CTG [3, 10]: −2.822 | SSMD.CTG [3, 11]: −1.255

CN(c1ncccc1CNc1nc(Nc2ccc3c(c2)CC(=O)N3)ncc1C(F)(F)F)S(C)(=O)=O [PF-562271]
Dose.FC.LYZ.NS ([1]; Dose 0.08 uM, primary screen): −0.068 log 2 fold change | Z.LYZ.NS [1, 16]: −0.589 | Dose.FC.LYZ.NS ([1]; Dose 0.40 uM, primary screen): −0.152 log 2 fold change | Z.LYZ.NS [1, 17]: −1.325 | Dose.FC.LYZ.NS ([1]; Dose 2.00 uM, primary screen): −0.234 log 2 fold change | Z.LYZ.NS [1, 18]: −2.034 | Dose.FC.LYZ.NS ([1]; Dose 10.00 uM, primary screen): −0.251 log 2 fold change | Z.LYZ.NS [1, 19]: −2.184 | Dose.FC.LYZ.S ([2]; Dose 0.08 uM): −0.088 log 2 fold change | Dose.FC.LYZ.S ([2]; Dose 0.40 uM): −0.214 log 2 fold change | Dose.FC.LYZ.S ([2]; Dose 2.00 uM): −0.332 log 2 fold change | Dose.FC.LYZ.S ([2]; Dose 10.00 uM): −0.414 log 2 fold change | Dose.FC.CTG ([3]; Dose 0.08 uM, primary screen): −0.114 log 2 fold change | Z.CTG [3, 16]: −0.273 | Dose.FC.CTG ([3]; Dose 0.40 uM, primary screen): −0.217 log 2 fold change | Z.CTG [3, 17]: −0.518 | Dose.FC.CTG ([3]; Dose 2.00 uM, primary screen): −0.549 log 2 fold change | Z.CTG [3, 18]: −1.311 | Dose.FC.CTG ([3]; Dose 10.00 uM, primary screen): −0.949 log 2 fold change | Z.CTG [3, 19]: −2.266

CC(C)N(CC[C@H](c1ccccc1)c1cc(CO)ccc1O)C(C)C [5-hydroxymethyl Tolterodine (PNU 200577, 5-HMT, 5-HM)]
SSMD.LYZ.NS_Rep (strictly standardized mean difference) [1, 20]: 0.915 | SSMD.LYZ.NS_Rep (strictly standardized mean difference) [1, 21]: 0.760 | SSMD.LYZ.NS_Rep (strictly standardized mean difference) [1, 22]: 0.947 | SSMD.LYZ.NS_Rep (strictly standardized mean difference) [1, 23]: 0.223 | Dose.FC.LYZ.NS [1, 24]: 0.184 log 2 fold change | Z.LYZ.NS [1, 25]: 1.599 | Dose.FC.LYZ.NS [1, 26]: 0.076 log 2 fold change | Z.LYZ.NS [1, 27]: 0.665 | Dose.FC.LYZ.NS [1, 28]: 0.154 log 2 fold change | Z.LYZ.NS [1, 29]: 1.344 | Dose.FC.LYZ.NS [1, 30]: 0.034 log 2 fold change | Z.LYZ.NS [1, 31]: 0.293 | SSMD.LYZ.S_Rep (strictly standardized mean difference) [2, 20]: 0.460 | Z.LYZ.S (standard z score) [2, 20]: 0.417 | SSMD.LYZ.S_Rep (strictly standardized mean difference) [2, 21]: 0.266 | Z.LYZ.S (standard z score) [2, 21]: 0.231 | SSMD.LYZ.S_Rep (strictly standardized mean difference) [2, 22]: 0.174 | Z.LYZ.S (standard z score) [2, 22]: 0.152 | SSMD.LYZ.S_Rep (strictly standardized mean difference) [2, 23]: −0.042 | Z.LYZ.S (standard z score) [2, 23]: −0.044 | Dose.FC.LYZ.S ([2]; dose 0.08 uM, ENR+CD 6 days): 0.065 log 2 fold change | Dose.FC.LYZ.S ([2]; dose 0.40 uM, ENR+CD 6 days): 0.036 log 2 fold change | Dose.FC.LYZ.S ([2]; dose 2.00 uM, ENR+CD 6 days): 0.023 log 2 fold change | Dose.FC.LYZ.S ([2]; dose 10.00 uM, ENR+CD 6 days): −0.007 log 2 fold change | SSMD.CTG_Rep (strictly standardized mean difference) [3, 20]: −0.118 | SSMD.CTG_Rep (strictly standardized mean difference) [3, 21]: 0.291 | SSMD.CTG_Rep (strictly standardized mean difference) [3, 22]: 0.114 | SSMD.CTG_Rep (strictly standardized mean difference) [3, 23]: 0.061 | Dose.FC.CTG [3, 24]: −0.062 log 2 fold change | Z.CTG [3, 25]: −0.149 | Dose.FC.CTG [3, 26]: 0.087 log 2 fold change | Z.CTG [3, 27]: 0.207 | Dose.FC.CTG [3, 28]: 0.034 log 2 fold change | Z.CTG [3, 29]: 0.082 | Dose.FC.CTG [3, 30]: 0.017 log 2 fold change | Z.CTG [3, 31]: 0.040
